Each block holds one compound with its values, some of them ahead of it. Active and inactive are the calls of the source. The rule behind the calls is not given here.
What was measured:
[1] = target: Cholinesterase (Homo sapiens, UniProt P06276); test: Inhibition of BChE (unknown origin) using BTCI as substrate preincubated for 15 min followed by substrate addition measured after 40 min by Ellman's method
[2] = target: T1, Amyloid-beta precursor protein (Homo sapiens, UniProt P05067); test: Inhibition of amyloid beta 42 (unknown origin) aggregation assessed as reduction in amyloid beta fibril formation incubated for 72 hrs by Congo Red dye based UV- spectrophotometric analysis
[3] = Antioxidant activity assessed as ABTS radical scavenging activity incubated for 10 min by spectrophotometric analysis; assay type: functional
[4] = target: Acetylcholinesterase (Homo sapiens, UniProt P22303); test: Inhibition of AChE (unknown origin) using ATCI as substrate preincubated for 15 min followed by substrate addition measured after 40 min by Ellman's method
[5] = target: T1, Amyloid-beta precursor protein; test: Inhibition of amyloid beta 42 (unknown origin) aggregation at 50 uM incubated for 24 hrs by ThT assay relative to control
[6] = Selectivity ratio, ratio of inhibition of BChE (unknown origin) to inhibition of AChE (unknown origin)
[7] = target: T1, Amyloid-beta precursor protein; test: Inhibition of amyloid beta 42 (unknown origin) aggregation incubated for 24 hrs by ThT assay

Chain of Acetylcholinesterase (P22303 whole entry): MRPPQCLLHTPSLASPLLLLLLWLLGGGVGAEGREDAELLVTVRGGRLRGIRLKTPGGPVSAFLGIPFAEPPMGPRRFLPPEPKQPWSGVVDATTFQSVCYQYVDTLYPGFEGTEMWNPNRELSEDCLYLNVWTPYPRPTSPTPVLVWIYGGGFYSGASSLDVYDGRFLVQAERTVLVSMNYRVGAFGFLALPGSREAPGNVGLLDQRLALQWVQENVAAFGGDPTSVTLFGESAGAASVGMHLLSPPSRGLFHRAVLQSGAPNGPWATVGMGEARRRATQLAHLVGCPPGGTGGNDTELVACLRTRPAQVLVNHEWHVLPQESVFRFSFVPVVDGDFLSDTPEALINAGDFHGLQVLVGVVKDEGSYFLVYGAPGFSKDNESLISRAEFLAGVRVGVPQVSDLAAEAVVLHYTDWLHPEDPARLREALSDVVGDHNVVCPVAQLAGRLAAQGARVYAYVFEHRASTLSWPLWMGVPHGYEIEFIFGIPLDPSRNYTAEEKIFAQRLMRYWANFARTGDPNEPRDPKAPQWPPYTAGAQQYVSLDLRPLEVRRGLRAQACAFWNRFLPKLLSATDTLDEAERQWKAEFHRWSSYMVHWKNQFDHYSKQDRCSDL
T1 sequence (P05067 whole entry): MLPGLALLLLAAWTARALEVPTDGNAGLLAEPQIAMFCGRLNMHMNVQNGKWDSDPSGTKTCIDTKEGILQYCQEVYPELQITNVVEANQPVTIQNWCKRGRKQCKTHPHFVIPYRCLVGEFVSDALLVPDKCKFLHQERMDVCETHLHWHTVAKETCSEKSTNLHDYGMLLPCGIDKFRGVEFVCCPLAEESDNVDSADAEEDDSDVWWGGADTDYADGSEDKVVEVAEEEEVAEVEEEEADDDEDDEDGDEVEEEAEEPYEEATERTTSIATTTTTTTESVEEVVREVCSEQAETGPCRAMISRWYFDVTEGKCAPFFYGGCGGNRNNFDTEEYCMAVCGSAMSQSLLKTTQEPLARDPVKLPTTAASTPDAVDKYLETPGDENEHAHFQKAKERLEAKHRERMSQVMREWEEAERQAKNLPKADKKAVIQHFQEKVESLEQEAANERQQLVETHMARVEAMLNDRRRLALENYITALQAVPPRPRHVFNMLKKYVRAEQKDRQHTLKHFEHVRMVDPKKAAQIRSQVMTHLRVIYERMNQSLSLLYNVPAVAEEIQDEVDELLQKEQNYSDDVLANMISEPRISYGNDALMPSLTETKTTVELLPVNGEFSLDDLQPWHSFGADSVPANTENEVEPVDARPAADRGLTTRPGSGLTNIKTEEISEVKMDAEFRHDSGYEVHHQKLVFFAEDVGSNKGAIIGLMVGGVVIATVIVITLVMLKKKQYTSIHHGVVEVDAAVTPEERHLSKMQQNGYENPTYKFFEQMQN
Chain of Cholinesterase (P06276 whole entry): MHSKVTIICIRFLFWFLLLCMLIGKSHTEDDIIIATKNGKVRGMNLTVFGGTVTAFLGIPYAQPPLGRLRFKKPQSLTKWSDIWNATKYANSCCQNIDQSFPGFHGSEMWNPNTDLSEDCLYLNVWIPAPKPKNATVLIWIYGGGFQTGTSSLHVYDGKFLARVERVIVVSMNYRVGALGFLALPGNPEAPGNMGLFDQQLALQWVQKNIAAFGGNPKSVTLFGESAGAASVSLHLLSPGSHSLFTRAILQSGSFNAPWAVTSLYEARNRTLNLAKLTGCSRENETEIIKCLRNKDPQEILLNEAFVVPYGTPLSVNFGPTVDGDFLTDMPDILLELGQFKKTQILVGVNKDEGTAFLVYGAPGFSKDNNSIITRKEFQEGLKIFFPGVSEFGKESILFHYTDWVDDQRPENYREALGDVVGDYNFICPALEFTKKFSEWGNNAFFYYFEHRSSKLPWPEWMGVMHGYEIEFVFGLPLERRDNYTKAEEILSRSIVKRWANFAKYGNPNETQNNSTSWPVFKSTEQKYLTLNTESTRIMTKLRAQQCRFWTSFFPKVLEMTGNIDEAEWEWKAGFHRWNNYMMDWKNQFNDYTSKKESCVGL

Structure (SMILES): COc1ccc2c(c1)C(=O)c1nccc3cc4c(c-2c13)OCO4 [ATHEROSPERMIDINE]
IC50 [1]: > 300 µM
inhibition [2]: Active
IC50 [3]: > 50 µM
IC50 [4]: 10.9 µM
inhibition [5]: 86.2%
Ratio IC50 [6]: > 27.5
IC50 [7]: 31.9 µM

Structure (SMILES): COc1ccc2c(c1)C[C@H]1NCCc3cc4c(c-2c31)OCO4
IC50 [1]: 68.5 µM
IC50 [3]: > 50 µM
IC50 [4]: 126 µM
inhibition [5]: 28%
Ratio IC50 [6]: 0.5
IC50 [7]: > 50 µM

Structure (SMILES): COC1=CC(=O)c2c(cc3c4c(cc5c(c24)OCO5)CCN3C)C1=O
IC50 [1]: 83.5 µM
IC50 [3]: > 50 µM
IC50 [4]: 221 µM
inhibition [5]: 30.7%
Ratio IC50 [6]: 0.4
IC50 [7]: > 50 µM

IC50 [3]: 11 µM
Structure (SMILES): Cc1c(C)c2c(c(C)c1O)CCC(C)(C(=O)O)O2 (stereo unspecified) [TROLOX]

Structure (SMILES): COc1cc2c(c(O)c1OC)CC[n+]1cc3c(OC)c(O)ccc3cc1-2
IC50 [1]: > 300 µM
IC50 [3]: > 50 µM
IC50 [4]: 16.4 µM
inhibition [5]: inactive
Ratio IC50 [6]: > 18.3

Structure (SMILES): COC1=C(CC(=O)CCc2ccccc2)C(=O)O[C@@H]1O
IC50 [1]: > 300 µM
inhibition [2]: Active
IC50 [3]: > 50 µM
IC50 [4]: > 300 µM
inhibition [5]: 74.4%
IC50 [7]: 26.6 µM

Structure (SMILES): COc1cc2c(cc1O)CC[n+]1cc3c(OC)c(O)ccc3cc1-2
IC50 [1]: 119 µM
IC50 [3]: 26.5 µM
IC50 [4]: 17.8 µM
inhibition [5]: 30%
Ratio IC50 [6]: 6.7
IC50 [7]: 50 µM

Structure (SMILES): COc1cc2c(cc1O)[C@@H]1Cc3ccc(OC)c(O)c3CN1CC2 [SCOULERINE]
IC50 [1]: 61.3 µM
IC50 [3]: 43.8 µM
IC50 [4]: 143 µM
inhibition [5]: 3.3%
Ratio IC50 [6]: 0.4
IC50 [7]: > 50 µM

Structure (SMILES): O=C1C(=O)N2CCc3cc4c(c5c3c2c1c1ccccc15)OCO4
IC50 [1]: 13.7 µM
IC50 [3]: > 50 µM
IC50 [4]: 51.3 µM
inhibition [5]: 47.6%
Ratio IC50 [6]: 0.3
IC50 [7]: > 50 µM

Structure (SMILES): COc1cc(O)c2c(c1)C[C@@H]1c3c(cc4c(c3-2)OCO4)CCN1C
IC50 [1]: 94.5 µM
IC50 [3]: 14.8 µM
IC50 [4]: 85 µM
inhibition [5]: 15.1%
Ratio IC50 [6]: 1.1
IC50 [7]: > 50 µM

Structure (SMILES): COc1cc2c(cc1OC)[C@@H]1Cc3ccc(O)c(OC)c3CN1CC2
IC50 [1]: 124 µM
IC50 [3]: > 50 µM
IC50 [4]: 211 µM
inhibition [5]: 10.7%
Ratio IC50 [6]: 0.6
IC50 [7]: > 50 µM

Structure (SMILES): COc1ccc(C[C@H]2c3c(ccc(OC)c3O)CCN2C)cc1
IC50 [1]: 33 µM
IC50 [3]: 38.3 µM
IC50 [4]: 25.6 µM
inhibition [5]: 26.6%
Ratio IC50 [6]: 1.3
IC50 [7]: > 50 µM

Structure (SMILES): COc1cc2c(c(O)c1OC)CC[N@+]1(C)Cc3c(ccc(O)c3OC)C[C@@H]21
IC50 [1]: > 300 µM
IC50 [3]: 43.6 µM
IC50 [4]: 131 µM
inhibition [5]: inactive
Ratio IC50 [6]: > 2.3

Structure (SMILES): COc1cc(O)c2c(c1)C[C@H]1NCCc3cc4c(c-2c31)OCO4
IC50 [1]: > 300 µM
IC50 [3]: > 50 µM
IC50 [4]: > 300 µM
inhibition [5]: 10.2%
IC50 [7]: > 50 µM

Structure (SMILES): COc1cc(O)c2c(c1)C[C@H]1NCCc3c(OC)c4c(c-2c31)OCO4
IC50 [1]: 141 µM
IC50 [3]: 13.5 µM
IC50 [4]: 162 µM
inhibition [5]: 44.5%
Ratio IC50 [6]: 0.9
IC50 [7]: > 50 µM

Structure (SMILES): COc1cc2c(c(O)c1OC)CCN1Cc3c(ccc(O)c3OC)C[C@@H]21
IC50 [1]: > 300 µM
IC50 [3]: > 50 µM
IC50 [4]: 89 µM
inhibition [5]: inactive
Ratio IC50 [6]: > 3.4

Structure (SMILES): COc1cc(O)c2c(c1)C[C@@H]1c3c(cc4c(c3-2)OCO4)CC[N@@+]1(C)[O-]
IC50 [1]: > 300 µM
IC50 [3]: > 50 µM
IC50 [4]: > 300 µM
inhibition [5]: 32.8%
IC50 [7]: > 50 µM

Structure (SMILES): COc1ccc2c(c1OC)c1c3c4c(cc5c(c42)OCO5)CCN3C(=O)C1=O
IC50 [1]: 251 µM
IC50 [3]: > 50 µM
IC50 [4]: 33 µM
inhibition [5]: 10.9%
Ratio IC50 [6]: 7.6
IC50 [7]: > 50 µM

Structure (SMILES): COc1ccc2c(c1)C[C@@H]1c3c(cc4c(c3-2)OCO4)CCN1C
IC50 [1]: 36.4 µM
IC50 [3]: > 50 µM
IC50 [4]: 26.2 µM
inhibition [5]: 38.2%
Ratio IC50 [6]: 1.4
IC50 [7]: > 50 µM

Structure (SMILES): COc1cc(O)cc2c1-c1c3c(cc4c1[C@@H](C2)N(C)CC4)OCO3
IC50 [1]: > 300 µM
inhibition [2]: Active
IC50 [3]: 16.5 µM
IC50 [4]: > 300 µM
inhibition [5]: 76%
IC50 [7]: 35.7 µM

Structure (SMILES): COc1cc(O)c2c(c1)C[C@@H]1c3c(cc4c(c3-2)OCO4)CC[N@+]1(C)[O-]
IC50 [1]: > 300 µM
IC50 [3]: 9.9 µM
IC50 [4]: > 300 µM
inhibition [5]: 37.9%
IC50 [7]: > 50 µM

— ChEMBL document CHEMBL5390208, “Bioactive Isoquinoline Alkaloids with Diverse Skeletons from Fissistigma polyanthum” (J Nat Prod, 2023)
